The values below are quoted from earlier work in PMC4982639, “Structural Basis of Microtubule Destabilization by Potent Auristatin Anti-Mitotics” (PLoS ONE, 2016).

In data set [1] the test system is tubulin dimers. Particulars: in vitro. The source says:
This model of curvature between dimers is supported in vitro by the formation of curved spiral or r ...

In data set [2] the test system is cellular assays. Particulars: stated in the conclusions as background; no reference given.
Data set [3] concerns cells expressing the CD30 epitope. Particulars: released in the cytosol from the internalized ADC Brentuximab vedotin. From the text: The mechanisms by which these molecules act on tubulin dimers include the induction of curved aggregates and inhibition of nucleotide exchange. MMAE comprises the four amino acids monomethylvaline (MeVal), valine (Val), dolaisoleuine (Dil) and dolaproine (Dap), and the carboxy-terminal amine norephedrine (Fig 1A). This agent provides the cytotoxic activity for the ADC Brentuximab vedotin, currently designated for relapsed Hodgkin lymphoma and anaplastic large cell lymphoma. Bren ...

Data set [4] deals with free tubulin. From the text:
(§1) Low resolution crystal structures of dolastatin 10 derivatives in complex with tubulin have further confirmed the region of binding for the auristatins, which overlaps w ...

Data set [5] deals with tubulin. Particulars: compared with vinca alkaloids, free tubulin.
Description: as §1

For the compound dolastatin, the “formation of curved aggregates” value in data set [1] is “formation of curved spiral or ring shaped aggregates”.
monomethyl auristatin E [MMAE]: the “potency in cellular assays” value in data set [2] was “nano- and picomolar potency”. In addition, the “cellular effect of released MMAE” value in data set [3] was “mitotic arrest and apoptosis”.
Turning to cryptophycin, the “formation of curved aggregates” value in data set [1] is listed as “formation of curved spiral or ring shaped aggregates”.
Regarding `CC[C@]1(O)C[C@@H]2CN(CCc3c([nH]c4ccccc34)[C@@](C(=O)OC)(c3cc4c(cc3OC)N(C)[C@H]3[C@@](O)(C(=O)OC)[C@H](OC(C)=O)[C@]5(CC)C=CCN6CC[C@]43[C@@H]65)C2)C1` [vinblastine], the “formation of curved aggregates” value in data set [1] was “formation of curved spiral or ring shaped aggregates”.
For monomethyl auristatin F [MMAF], the “potency in cellular assays” value in data set [2] is “nano- and picomolar potency”.
As to dolastatin 10, the “type of inhibition of vinca alkaloids” value in data set [4] was “non-competitive inhibitor of the vinca alkaloids”. Besides, the “inhibition of nucleotide exchange” value in data set [5] is recorded as “much greater inhibition of nucleotide exchange”.
